What was measured:
adjuvant arthritic rats [1] = assay: Adjuvant arthritis model, Example 3 (rhuIL-1ra subcutaneous infusion, methotrexate dose range); assay type: in vivo, Male Lewis rats; parameters: inhibition of final paw weight: dose or concentration left out as unconfirmed; settings: rhuIL-1ra alone
Description: (§1) Male Lewis rats (Charles River, Portage, Mich.) (5-7/group) weighing at least 250-300 g were cannulated in the subcutis of the dorsal back and allowed to recover for several days. They were then placed in infusion cages and acclimated for at least 4 days prior to initiating adjuvant injections. On day-0, all rats were injected with 100 μl of Freunds Complete Adjuvant (Sigma Chemical Co., St. […] Body weights were taken on day 0 and every other day from day 8 to termination on day 15. Caliper measurements and clinical scoring were done on day 8 and every other day until termination. At this time the animals' body, paw and spleen weights were determined.

adjuvant arthritic rats [2] = assay: Adjuvant arthritis model, first Example 4 (rhuIL-1ra 5 mg/kg/hr infusion, methotrexate dose range); assay type: in vivo, Male Lewis rats; settings: rhuIL-1ra alone
Description: as §1

adjuvant arthritic rats [3] = assay: Adjuvant arthritis model, Example 1 (rhuIL-1ra IV infusion, oral methotrexate); assay type: in vivo, Male Lewis rats; settings: rhuIL-1ra 5 mg/kg/hr continuous IV infusion from day 8; methotrexate 0.06 mg/kg oral days 0-14; termination day 15
Description: Male Lewis rats (Charles River, Portage, Mich.) (5 per group) weighing at least 200 g were cannulated with jugular catheters and allowed to recover for several days. They were then placed in infusion cages and acclimated for a week prior to initiating adjuvant injections. On day 0, all treated rats were injected with 100 μl of Freunds Complete Adjuvant (Sigma Chemical Co., St. […] On day 8, treatment with E. coli-derived human recombinant IL-1 receptor antagonist (prepared generally in accordance with the teachings of U.S. Pat. […] Body weights were taken on day 0 and every other day from day 8 to termination on day 15. Caliper measurements and clinical scoring were done on day 8 and every other day until termination. At this time the animals' body, paw and spleen weights were determined.

adjuvant arthritic rats [4] = assay: Adjuvant arthritis model, Example 2 (rhuIL-1ra IV infusion, oral methotrexate); assay type: in vivo, Male Lewis rats; settings: rhuIL-1ra 5 mg/kg/hr continuous IV infusion from day 8; methotrexate 0.06 mg/kg oral days 0-14; termination day 15
Description: as §1, with “200” for “250-300”, “with jugular catheters” for “in the subcutis of the dorsal back”, “one week” for “4 days”

EAE model = assay: EAE model, second Example 4 (integrated clinical score, weight gain); assay type: in vivo, Female Strain 13 guinea pigs

## rhuIL-1ra: E. coli-derived human recombinant IL-1 receptor antagonist (SEQ ID NO:2), in citrate buffer formulation
Adjuvant arthritic rats [1]
  inhibition of bone resorption, histologic evaluation of ankle joints: 53%
  inhibition of inflammation, histologic evaluation of ankle joints: 8%
Adjuvant arthritic rats [1]; 5 mg/ml/hr sc infusion
  inhibition of swelling, ankle joint diameter over time (area under the curve): 6%
Adjuvant arthritic rats [1]; continuous subcutaneous infusion, days 8-15
  inhibition of final paw weight: 6%
Adjuvant arthritic rats [2]
  inhibition of bone resorption, histologic evaluation of ankle joints: 53%
  inhibition of inflammation, histologic evaluation of ankle joints: 8%
Adjuvant arthritic rats [2]; 5 mg/kg/hr infusion
  inhibition of swelling, ankle joint diameter over time (area under the curve): 6%
Adjuvant arthritic rats [2]; continuous subcutaneous infusion 5 mg/kg/hr, days 8-15
  inhibition of final paw weight: 6%
Adjuvant arthritic rats [3]
  inhibition of arthritis (paw swelling): 57%
  inhibition of body weight change: 25%
  inhibition of splenomegaly (spleen weight): no significant benefit
Adjuvant arthritic rats [4]
  inhibition of body weight change: no inhibition
  inhibition of paw swelling: 22%
  inhibition of splenomegaly: 24%
EAE model; rhuIL-1ra 10 mg/kg s.c. 3x a day from day 0, alone or with r-metIFN-con1 0.03 mg/kg s.c.
  attenuation of clinical symptoms/signs (integrated clinical score): 49%
EAE model; rhuIL-1ra 100 mg/kg s.c. 3x a day from day 0, alone or with r-metIFN-con1 0.03 mg/kg s.c.
  attenuation of clinical symptoms/signs (integrated clinical score): 53%

From patent US20090203609A1, “Use of IL-1 inhibitors for treating IL-1 mediated diseases” (AMGEN INC., priority 1996, published 2009)
